This is an account of results in patent US12472187B2, “Texaphyrin-Pt(IV) conjugates and compositions for use in overcoming platinum resistance” (BOARD OF REGENTS, THE UNIVERSITY OF TEXAS SYSTEM, priority 2014, dated 2025).

For one assay, the system named is A2780 cells. The conditions noted are these: platinum sensitive A2780 cells; data from Arambula, et al., 2012; cited from earlier work.
Assay [1] concerns 2780CP cells. In words: MTT (tetrazolium dye reduction) proliferation assay, cisplatin resistant 2780CP cells. The format is cell-based, human. The conditions noted are these: ratio of IC50 in 2780CP to A2780; rows for cisplatin and 2 rest on cited IC50. How it is done: The A2780 line was established from a patient's biopsy prior to initiation of any chemotherapeutic regimen (Godwin, et al., 1992). The resistant cell line, 2780CP, used in this study, was established from A2780 cells, as described by Siddik, et al., 1998. The two cell lines have wild-type p53 genotype and/or function. Cells were grown in RPMI containing 10% fetal calf serum and antibiotics (100 μg/mL streptomycin and 100 U/mL penicillin).
The proliferation of exponential phase cultures of A2780 and 2780CP cells was assessed by tetrazolium dye reduction (Mosmann, 1983, which is incorporated herein by reference). […] After a total incubation time of 6 days at 37° C., 50 μL of a stock solution at 3 mg/ml of the tetrazolium dye, 3-(4,5-dimethylthiazol-2-yl)-2,5-diphenyltetrazolium bromide (MTT, Sigma Chemical) were added to each well, the plates incubated at 37° C. for 4 hours, whereupon the medium was removed, the formazan product dissolved in DMSO (50-100 μL) and absorbance values at 570 nm was measured using a microplate reader (Molecular Devices, Sunnyvale, CA). Absorbance values were corrected for background and then normalized to wells containing untreated cells to allow plate-to-plate comparisons. […]
The anti-proliferative effects of conjugates 4 and 5 were assessed with platinum sensitive human ovarian A2780 cells and the isogenic cisplatin resistant 2780CP cell line. […]

Assay [2] deals with 2780CP cells. As to conditions: cisplatin resistant 2780CP cells; data from Arambula, et al., 2012; cited from earlier work.
Another assay deals with A2780 cancer cells. The assay can be described thus: MTT antiproliferative assay of Pt(IV), MGd and MGd+Pt(IV) on A2780 cancer cells. The conditions noted are these: agent alone, read-out: IC50 (growth inhibition), single agent. The format is cell-based. How it is done:
A2780 cancer cells were incubated (37° C., 5% CO2 atmosphere, dark) in 96-wells plates at a concentration of 600 cells/well, in a culture medium containing 10% fetal bovine serum and supplemented with penicillin and streptomycin. After 15 h, drugs (Pt(IV), MGd, MGd+Pt(IV)) were added to cells (gradient of concentration, from 0 to 200 μM, 3-fold dilutions) and plates were incubated for five more days using the above conditions. After five days, MTT dye was added in each well (0.15 mg/well) and plates were left for 4 hours in the incubator. Then, supernatant was carefully removed and 50 μL of DMSO were added to dissolve MTT purple formazan crystals. The absorbance was read at 570 nm using a plate reader.
A general note: Formazan colour is commonly taken as a measure of viable cells.

Structures are written as SMILES.

What is called IC50 is the concentration that inhibits the measured activity by half. As to `N.N.[Cl][Pt][Cl]` [Cisplatin], the IC50 is 0.33 µM with A2780 cells and 7.3 µM in the assay with 2780CP cells [2]. For the same compound, in the assay with 2780CP cells [1], the “Resistance factor = IC50(2780CP)/IC50(A2780)” value is 18.25.

`CC(=O)[O-].CC(=O)[O-].CCc1c(CC)c2cc3nc(cnc4cc(OCCOCCOCCOC)c(OCCOCCOCCOC)cc4ncc4nc(cc1[n-]2)C(CCCO)=C4C)C(C)=C3CCCO.[Gd+3]` [Compound 1, motexafin gadolinium]: the IC50 in the assay with A2780 cancer cells came to 78 µM.
